# Test results taken from PubChem BioAssay AID252 (DTP/NCI, 2004).
# Values joined by “and” are separate entries in the source; they are usually repeats but may differ in a detail not shown here. Equal entries are not always repeated. Inconclusive results and toxic doses are left out.
# Tested on: BDF1 mice, intracerebral L1210 leukemia, survival T/C
# Assay: NCI In Vivo Anticancer Drug Screen. Data for tumor model L1210 Leukemia (intracerebral) in B6D2F1 (BDF1) mice
# Conditions: higher = longer survival
# Method in brief: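 Readout is the T/C ratio: survival of compound-treated animals over that of vehicle-treated controls, in mice bearing transplantable tumour.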
# [1] = endpoint: mean survival time, dose: 8.0 mg/kg/injection, schedule: Q01DX001 (ip), vehicle: saline with Tween-80
# [2] = endpoint: mean survival time, dose: 20.0 mg/kg/injection, schedule: Q01DX001 (ip), vehicle: saline with Tween-80
# [3] = endpoint: mean survival time, dose: 30.0 mg/kg/injection, schedule: Q01DX001 (ip), vehicle: saline with Tween-80
smiles,measurement,setting,value
CN(N=O)C(=O)C(=O)N(C)N=O,T/C,"endpoint: mean survival time, dose: 15.0 mg/kg/injection, schedule: Q01DX Z (ip), vehicle: saline",98 % of control
same,T/C,"endpoint: mean survival time, dose: 30.0 mg/kg/injection, schedule: Q01DX Z (ip), vehicle: saline",97 % of control
same,T/C,"endpoint: mean survival time, dose: 60.0 mg/kg/injection, schedule: Q01DX Z (ip), vehicle: saline",98 % of control
same,T/C,"endpoint: mean survival time, dose: 120.0 mg/kg/injection, schedule: Q01DX Z (ip), vehicle: saline",98 % of control
O=NN(CCCl)C(=O)N[C@@H]1CCC[C@@H](O)C1,T/C,[1],118 % of control
same,T/C,[2],361 % of control
same,T/C,[3],413 % of control
same,T/C,"endpoint: mean survival time, dose: 44.0 mg/kg/injection, schedule: Q01DX001 (ip), vehicle: saline with Tween-80",260 % of control
O=C(NC1=C(N2CC2)C(=O)C(NC(=O)OCCO)=C(N2CC2)C1=O)OCCO,T/C,"endpoint: median survival time, dose: 0.18 mg/kg/injection, schedule: Q01DX009 (ip), vehicle: saline",100 % of control
same,T/C,"endpoint: median survival time, dose: 0.39 mg/kg/injection, schedule: Q01DX009 (ip), vehicle: saline",97 % of control
same,T/C,"endpoint: median survival time, dose: 0.75 mg/kg/injection, schedule: Q01DX009 (ip), vehicle: saline",96 % of control and 97 % of control
same,T/C,"endpoint: median survival time, dose: 1.5 mg/kg/injection, schedule: Q01DX009 (ip), vehicle: saline",91 % of control and 100 % of control
same,T/C,"endpoint: median survival time, dose: 3.0 mg/kg/injection, schedule: Q01DX009 (ip), vehicle: saline",108 % of control and 101 % of control
same,T/C,"endpoint: median survival time, dose: 6.0 mg/kg/injection, schedule: Q01DX009 (ip), vehicle: saline",122 % of control and 98 % of control
Cc1cc(C)c(NC(=O)N(CCCl)N=O)c(C)c1,T/C,"endpoint: mean survival time, dose: 5.0 mg/kg/injection, schedule: Q01DX001 (ip), vehicle: other",97 % of control
same,T/C,"endpoint: mean survival time, dose: 7.5 mg/kg/injection, schedule: Q01DX001 (ip), vehicle: other",98 % of control
same,T/C,"endpoint: mean survival time, dose: 10.0 mg/kg/injection, schedule: Q01DX001 (ip), vehicle: other",103 % of control
same,T/C,"endpoint: mean survival time, dose: 15.0 mg/kg/injection, schedule: Q01DX001 (ip), vehicle: other",107 % of control and 117 % of control
same,T/C,"endpoint: mean survival time, dose: 20.0 mg/kg/injection, schedule: Q01DX001 (ip), vehicle: other",115 % of control
same,T/C,"endpoint: mean survival time, dose: 128.0 mg/kg/injection, schedule: Q01DX001 (ip), vehicle: other",101 % of control
O=NN(CCCl)C(=O)NC1CCC(=O)NC1=O (stereo not drawn),T/C,"endpoint: mean survival time, dose: 2.1 mg/kg/injection, schedule: Q01DX001 (ip), vehicle: other",106 % of control and 116 % of control
same,T/C,"endpoint: mean survival time, dose: 4.0 mg/kg/injection, schedule: Q01DX001 (ip), vehicle: other",156 % of control and 226 % of control
same,T/C,"endpoint: mean survival time, dose: 8.0 mg/kg/injection, schedule: Q01DX001 (ip), vehicle: other",159 % of control and 161 % of control and 183 % of control
same,T/C,[1],352 % of control
same,T/C,"endpoint: mean survival time, dose: 11.0 mg/kg/injection, schedule: Q01DX001 (ip), vehicle: other",251 % of control
same,T/C,"endpoint: mean survival time, dose: 12.0 mg/kg/injection, schedule: Q01DX001 (ip), vehicle: other",298 % of control and 327 % of control
same,T/C,"endpoint: mean survival time, dose: 13.0 mg/kg/injection, schedule: Q01DX001 (ip), vehicle: saline with Tween-80",542 % of control
same,T/C,"endpoint: mean survival time, dose: 16.0 mg/kg/injection, schedule: Q01DX001 (ip), vehicle: other",274 % of control and 328 % of control
same,T/C,"endpoint: mean survival time, dose: 17.0 mg/kg/injection, schedule: Q01DX001 (ip), vehicle: other",389 % of control and 498 % of control
same,T/C,[2],625 % of control
same,T/C,"endpoint: mean survival time, dose: 22.0 mg/kg/injection, schedule: Q01DX001 (ip), vehicle: other",251 % of control
same,T/C,"endpoint: mean survival time, dose: 24.0 mg/kg/injection, schedule: Q01DX001 (ip), vehicle: other",238 % of control and 335 % of control
same,T/C,[3],107 % of control
same,T/C,"endpoint: mean survival time, dose: 33.0 mg/kg/injection, schedule: Q01DX001 (ip), vehicle: other",297 % of control
same,T/C,"endpoint: mean survival time, dose: 35.0 mg/kg/injection, schedule: Q01DX001 (ip), vehicle: other",287 % of control and 353 % of control
same,T/C,"endpoint: mean survival time, dose: 36.0 mg/kg/injection, schedule: Q01DX001 (ip), vehicle: other",205 % of control
same,T/C,"endpoint: mean survival time, dose: 44.0 mg/kg/injection, schedule: Q01DX001 (ip), vehicle: other",275 % of control
COC1=C(N2CC2)C(=O)C(OC)=C(N2CC2)C1=O,T/C,"endpoint: mean survival time, dose: 0.12 mg/kg/injection, schedule: Q01DX009 (ip), vehicle: saline",101 % of control
same,T/C,"endpoint: mean survival time, dose: 0.25 mg/kg/injection, schedule: Q01DX009 (ip), vehicle: saline",95 % of control
same,T/C,"endpoint: mean survival time, dose: 0.5 mg/kg/injection, schedule: Q01DX009 (ip), vehicle: saline",104 % of control and 106 % of control and 98 % of control
same,T/C,"endpoint: mean survival time, dose: 1.0 mg/kg/injection, schedule: Q01DX009 (ip), vehicle: saline",105 % of control and 111 % of control and 121 % of control
same,T/C,"endpoint: mean survival time, dose: 2.0 mg/kg/injection, schedule: Q01DX009 (ip), vehicle: saline",114 % of control and 117 % of control
same,T/C,"endpoint: mean survival time, dose: 4.0 mg/kg/injection, schedule: Q01DX009 (ip), vehicle: saline",86 % of control
